Experimental data taken from patent US20230150929A1, “SELECTIVE NON-CYCLIC NUCLEOTIDE ACTIVATORS FOR THE CAMP SENSOR EPAC1” (The Board of Regents of The University of Texas System, priority 2020, published 2023).
Values belong to the compound of their own block, whether it stands above or below them.

How the values were obtained:
PKA = PKA activation (VASP phosphorylation, western blot) in U2OS-EPAC1 cells; type: cell-based; details: 100 µM test compound, FIG. 5
Protocol: FIG. 5. PKA activation results of representative newly discovered EPAC1 agonists. U2OS cells stably transfected with EPAC1 were treated with 100 µM of test compounds, cyclic nucleotide EPAC1 agonist 2 or 10 µM of forskolin and rolipram (F/R), cyclic AMP elevating agents, as a positive control. Active, phosphorylated VASP (P-VASP) was visualized using a phospho-specific, anti-VASP antibody. None of the test compounds promoted VASP phosphorylation in cells.
PKA and GPCR Selectivity. To investigate the EPAC selectivity of these EPAC agonists, compounds 25g, 25n and 25q were selected for further PKA activation studies, and the results are shown in FIG. 5. PKA activation was assessed by monitoring phosphorylation state of a downstream PKA effector, vasodilator-stimulated phosphoprotein (VASP).
(§1) SDS-PAGE and Western Blotting. Samples were prepared by mixing equal volumes of cell lysate and 2x SDS sample loading buffer and denaturing for 5 min at 95° C., unless indicated otherwise. Protein samples were separated by SDS-PAGE on 10% (v/v) polyacrylamide gels, for EPAC1 and VASP, or on 12.5% (v/v), for Rap1, and then transferred to nitrocellulose membranes. Membranes were then blocked for 1 h at room temperature in 5% (w/v) non-fat dry milk or 5% (w/v) BSA in Tris-buffered saline containing 0.1% (v/v) Tween 20, followed by an overnight incubation with primary antibody diluted in blocking buffer at 4° C. Subsequently, the membranes were incubated with appropriate horseradish peroxidase-conjugated secondary antibodies for 1 h at room temperature. For signal detection the SuperSignal West Pico PLUS Chemiluminescent Substrate (Thermo Scientific) was used. Images were acquired using the Fusion FX7 camera platform (Vilber). Densitometry was performed with ImageJ.

EPAC1-CNBD = molecular target: T1, EPAC1-CNBD (Homo sapiens, UniProt O95398); assay: 8-NBD-cAMP competition binding assay, EPAC1-CNBD; details: for IC50 values as EPAC1 binders (in words): summary statement; for RFI (%) (relative fluorescence intensity), Table 4 / RFI (%) (relative fluorescence intensity), Table 1: compound 10 µM, EPAC1-CNBD 0.8 µM, 8-NBD-cAMP 62.5 nM, mean ± SEM, lower RFI = stronger binding; for EPAC1 binding potency / affinity in words: SAR comment on RFI, mostly relative to 3 or 9a
T1 sequence (O95398 169-318 isoform O95398-3): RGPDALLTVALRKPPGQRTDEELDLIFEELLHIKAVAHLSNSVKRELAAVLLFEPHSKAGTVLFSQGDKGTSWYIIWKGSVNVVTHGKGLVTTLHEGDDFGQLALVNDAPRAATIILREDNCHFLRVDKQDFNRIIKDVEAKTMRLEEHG

EPAC1 [1] = molecular target: T2, EPAC1 (Homo sapiens, UniProt O95398); assay: Active Rap1 pull-down in U2OS cells stably transfected with EPAC1; type: cell-based; design: expressed in transfected cells; host or cells: U2OS cells (from Professor Holger Rehmann, University of Utrecht); details: for Rap1 activation in EPAC1 cells: U2OS-EPAC1, 100 µM compound, 10 min, FIG. 7; for selectivity: ability to activate EPAC1 over EPAC2 (ratio of EPAC1 to EPAC2 activation): densitometry of Rap1-GTP immunoblots, U2OS-EPAC1 vs U2OS-EPAC2, FIG. 8
T2 sequence (O95398 1-923): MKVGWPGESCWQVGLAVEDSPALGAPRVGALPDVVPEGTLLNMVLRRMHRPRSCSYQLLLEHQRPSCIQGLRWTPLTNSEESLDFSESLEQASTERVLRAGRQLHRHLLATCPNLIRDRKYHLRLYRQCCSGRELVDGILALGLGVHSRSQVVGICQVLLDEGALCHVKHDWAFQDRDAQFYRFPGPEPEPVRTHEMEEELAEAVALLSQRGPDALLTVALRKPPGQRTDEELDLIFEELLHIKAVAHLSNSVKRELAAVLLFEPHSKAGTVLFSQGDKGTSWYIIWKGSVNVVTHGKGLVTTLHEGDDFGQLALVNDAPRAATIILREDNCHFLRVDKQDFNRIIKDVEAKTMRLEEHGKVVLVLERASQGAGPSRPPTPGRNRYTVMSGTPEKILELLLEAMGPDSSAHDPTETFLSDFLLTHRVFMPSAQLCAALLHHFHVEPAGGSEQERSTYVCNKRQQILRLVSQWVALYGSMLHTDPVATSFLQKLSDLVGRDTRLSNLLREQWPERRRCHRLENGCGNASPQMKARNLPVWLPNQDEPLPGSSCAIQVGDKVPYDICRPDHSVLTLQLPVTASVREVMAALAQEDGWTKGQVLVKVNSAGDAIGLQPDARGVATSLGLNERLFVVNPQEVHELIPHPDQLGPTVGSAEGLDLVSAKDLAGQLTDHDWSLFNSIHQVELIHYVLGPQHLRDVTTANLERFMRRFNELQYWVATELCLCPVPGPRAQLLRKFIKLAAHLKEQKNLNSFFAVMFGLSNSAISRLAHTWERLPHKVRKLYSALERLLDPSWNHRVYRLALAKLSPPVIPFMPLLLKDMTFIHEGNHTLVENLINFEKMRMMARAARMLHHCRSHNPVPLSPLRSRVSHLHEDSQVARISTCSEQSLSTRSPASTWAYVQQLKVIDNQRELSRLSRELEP
Protocol: (§2) Series Expansion and EPAC1 vs EPAC2 Selectivity. GEF assay was used to further screen all newly synthesis analogues at 10 µM, to identify additional activating compounds to expand the series of EPAC1 agonists (FIG. 6). […] Having now identified an expanded exemplary series of compounds as potential EPAC1 activators the ability of 25e, 25f, 25g, 25n and 25u to activate EPAC1 and EPAC2 in cellular Rap1 activation assays (FIG. 7) were compared. For these U2OS cells transfected with either EPAC1 or EPAC2 (FIG. 7) was used. […] Densitometry was carried out on all immunoblots and the ratio of EPAC1 to EPAC2 activation was calculated and presented in a bar graph in FIG. 8.
Active Rap1 Pull-down. U2OS cells (from Professor Holger Rehmann, University of Utrecht) stably transfected with EPAC1 or EPAC2 were cultured in 6-well plates in DMEM, high glucose, supplemented with 10% (v/v) FBS, 1% (v/v) GlutaMAX, 1% (v/v) Penicillin-Streptomycin and 2 mg/l puromycin (to ensure selection of stable transfectants). 80% confluent cells were starved in culture medium with reduced FBS concentration (0.5 %) for 16 h and then stimulated for 10 min with either vehicle, 100 µM of studied compounds, or 50 µM of 2 in case of U2OS-EPAC1 or 100 µM of compound 4 for U2OS-EPAC2. Cells were then rinsed with ice-cold PBS and lysed in 0.5 ml cell lysis buffer (Cell Signaling Technologies) supplemented with 10 mM MgCl2 and 1 mM PMSF, followed by clearing the lysates by centrifugation. Cell lysates were incubated for 1 h (4° C., gentle agitation) with 40 µg GST-RalGDS-RBD immobilized on Glutathione Sepharose 4B (GE Healthcare) to selectively capture GTP-bound Rap1. Later on, the glutathione resin was separated from supernatant by centrifugation, washed three times with cell lysis buffer, then resuspended in 2x SDS sample loading buffer and denatured for 5 min at 95° C.
as §1

EPAC1 [2] = molecular target: T2, EPAC1; assay: In vitro GEF screen (EPAC1 activation assay); type: biochemical; design: expressed in transfected cells; host or cells: U2OS cells (from Professor Holger Rehmann, University of Utrecht); details: 10 µM, FIG. 6
Protocol: FIGS. 6A-B. Identification of compounds including 25g (PW0381) 25q (PW0521) 25n (PW0577), 25u (PW0606), 25e (PW0624) and 25f (PW0625) as EPAC1 activators in an in vitro GEF screen. […] Selected compounds have been highlighted as indicated.
as §2

SMILES: O=C(COc1ccc2ccccc2c1)NS(=O)(=O)c1ccc([N+](=O)[O-])c(F)c1 [Compound 25e, N-((3-Fluoro-4-nitrophenyl)sulfonyl)-2-(naphthalen-2-yloxy)acetamide]
PKA activation (VASP phosphorylation) (PKA): unable to activate PKA
IC50 values as EPAC1 binders (in words) (EPAC1-CNBD): low micromolar to sub-micromolar
Rap1 activation in EPAC1 cells (EPAC1 [1]): roughly equivalent to the positive control
selectivity: ability to activate EPAC1 over EPAC2 (ratio of EPAC1 to EPAC2 activation) (EPAC1 [1]): best selectivity
EPAC1 activity in GEF assay (EPAC1 [2]): promote EPAC1 activity more effectively than 25g, 25n and 25q

SMILES: Nc1ccc(S(=O)(=O)NC(=O)COc2ccc3ccccc3c2)cc1F [Compound 25f, N-((4-Amino-3-fluorophenyl)sulfonyl)-2-(naphthalen-2-yloxy)acetamide]
PKA activation (VASP phosphorylation) (PKA): unable to activate PKA
RFI (%) (relative fluorescence intensity), Table 4 (EPAC1-CNBD): 81 ± 8%
IC50 values as EPAC1 binders (in words) (EPAC1-CNBD): low micromolar to sub-micromolar
selectivity: ability to activate EPAC1 over EPAC2 (ratio of EPAC1 to EPAC2 activation) (EPAC1 [1]): best selectivity
EPAC1 activity in GEF assay (EPAC1 [2]): promote EPAC1 activity more effectively than 25g, 25n and 25q

SMILES: Cc1cc(C)c(S(=O)(=O)NC(=O)CSc2nc3ccccc3c(=O)[nH]2)c(C)c1 [Compound 9i, N-(Mesitylsulfonyl)-2-((4-oxo-3,4-dihydroquinazolin-2-yl)thio)acetamide]
RFI (%) (relative fluorescence intensity), Table 1 (EPAC1-CNBD): 95 ± 4%

SMILES: COc1ccc2ccc(OCC(=O)NS(=O)(=O)c3ccc(OC)c(OC)c3)cc2c1 [Compound 25p, N-((3,4-Dimethoxyphenyl)sulfonyl)-2-((7-methoxynaphthalen-2-yl)oxy)acetamide]
RFI (%) (relative fluorescence intensity), Table 4 (EPAC1-CNBD): 23 ± 4%

SMILES: O=C(COc1ccc2ccccc2c1)NS(=O)(=O)c1cccc(F)c1 [Compound 25c, N-((3-Fluorophenyl)sulfonyl)-2-(naphthalen-2-yloxy)acetamide]
EPAC1 binding potency / affinity in words (EPAC1-CNBD): decreased the binding potency
RFI (%) (relative fluorescence intensity), Table 4 (EPAC1-CNBD): 82 ± 4%

SMILES: Cc1cc(C)cc(S(=O)(=O)NC(=O)COc2ccc3ccccc3c2)c1 [Compound 25a, N-((3,5-Dimethylphenyl)sulfonyl)-2-(naphthalen-2-yloxy)acetamide]
RFI (%) (relative fluorescence intensity), Table 4 (EPAC1-CNBD): 38 ± 2%
fold binding potency increase versus compound 3 (EPAC1-CNBD; from RFI at 10 µM): about 1.6 fold

SMILES: COc1ccc2ccc(OCC(=O)NS(=O)(=O)c3cc(C)cc(Br)c3)cc2c1 [Compound 25k, N-((3-Bromo-5-methylphenyl)sulfonyl)-2-((7-methoxynaphthalen-2-yl)oxy)acetamide]
RFI (%) (relative fluorescence intensity), Table 4 (EPAC1-CNBD): 29 ± 8%

SMILES: COc1ccc2ccc(OCC(=O)NS(=O)(=O)c3ccc([N+](=O)[O-])cc3OC)cc2c1 [Compound 25m, N-((2-Methoxy-4-nitrophenyl)sulfonyl)-2-((7-methoxynaphthalen-2-yl)oxy)acetamide]
RFI (%) (relative fluorescence intensity), Table 4 (EPAC1-CNBD): 24 ± 2%

SMILES: Cc1cc(C)c(S(=O)(=O)NC(=O)COc2cccc3ccccc23)c(C)c1 [Compound 9b, N-(Mesitylsulfonyl)-2-(naphthalen-1-yloxy)acetamide]
EPAC1 binding potency / affinity in words (EPAC1-CNBD): no significant improvement
RFI (%) (relative fluorescence intensity), Table 1 (EPAC1-CNBD): 94 ± 5%

SMILES: Cc1cc(-c2cncc(F)c2)cc(S(=O)(=O)NC(=O)COc2ccc3ccccc3c2)c1 [Compound 25r, N-((3-(5-Fluoropyridin-3-yl)-5-methylphenyl)sulfonyl)-2-(naphthalen-2-yloxy)acetamide]
RFI (%) (relative fluorescence intensity), Table 4 (EPAC1-CNBD): 36 ± 3%

Continued, in another order:

RFI (%) (relative fluorescence intensity), Table 4 (EPAC1-CNBD): 40 ± 1%
SMILES: Cc1cc(-c2ccco2)cc(S(=O)(=O)NC(=O)COc2ccc3ccccc3c2)c1 [Compound 25s, N-((3-(Furan-2-yl)-5-methylphenyl)sulfonyl)-2-(naphthalen-2-yloxy)acetamide]

RFI (%) (relative fluorescence intensity), Table 4 (EPAC1-CNBD): 56 ± 6%
IC50 values as EPAC1 binders (in words) (EPAC1-CNBD): low micromolar to sub-micromolar
SMILES: Cc1cc(Nc2ncccc2C(F)(F)F)cc(S(=O)(=O)NC(=O)COc2ccc3ccccc3c2)c1 [Compound 25u, N-((3-Methyl-5-((3-(trifluoromethyl)pyridin-2-yl)amino)phenyl)sulfonyl)-2-(naphthalen-2-yloxy)acetamide]
PKA activation (VASP phosphorylation) (PKA): unable to activate PKA
Rap1 activation in EPAC1 cells (EPAC1 [1]): roughly equivalent to the positive control
EPAC1 activity in GEF assay (EPAC1 [2]): promote EPAC1 activity more effectively than 25g, 25n and 25q

RFI (%) (relative fluorescence intensity), Table 4 (EPAC1-CNBD): 49 ± 2%
SMILES: O=C(COc1ccc2ccccc2c1)NS(=O)(=O)c1ccccc1 [Compound 25y, 2-(Naphthalen-2-yloxy)-N-(phenylsulfonyl)acetamide]

RFI (%) (relative fluorescence intensity), Table 4 (EPAC1-CNBD): 67 ± 3%
SMILES: O=C(COc1ccc2ccccc2c1)NS(=O)(=O)c1cccc([N+](=O)[O-])c1 [Compound 25x, 2-(Naphthalen-2-yloxy)-N-((3-nitrophenyl)sulfonyl)acetamide]

RFI (%) (relative fluorescence intensity), Table 4 (EPAC1-CNBD): 33 ± 3%
SMILES: COc1cccc(S(=O)(=O)NC(=O)COc2ccc3ccccc3c2)c1 [Compound 25z, N-((3-methoxyphenyl)sulfonyl)-2-(naphthalen-2-yloxy)acetamide]
